What was measured:
[1] = system: KK mice; experiment: Hypoglycemic activity (blood glucose decrease in KK mice, glucose oxidase method); assay type: in vivo; details: percent decrease of blood glucose from the level prior to administration; dosage level of 100 mg; per os daily for 4 consecutive days, blood glucose on day 5; male KK mice on high caloric diet
Protocol: Male KK mice, 4-5 weeks old, were obtained from Japan Clea. The animals were individually put on a high caloric diet (CMF, Oriental Yeast) and the individuals weighing about 40 g were selectively used.
For determination of blood glucose, 10 µl of blood was withdrawn from the caudal vein, deproteinized with 100 µl of 0.33 N perchloric acid and centrifuged. The glucose in the supernatant was assayed by the glucose oxidase method. Groups of 6 animals showing 200 mg/dℓ or more of blood glucose were submitted to the experiment.
The test compound was suspended in 0.5% methylcellulose and administered daily per os for 4 consecutive days. Before administration and on day 5, the blood was withdrawn from the caudal vein of each animal and the blood glucose was determined by the above method.
Hypoglycemic potency was expressed in terms of percent decrease from the glucose level prior to administration of the test compound and the results were statistically evaluated at the significance level of p=0.05. * = p<0.05 ** = p<0.01 *** = p<0.001 As a result, a significant hypoglycemic effect was attained within the dose range of 10 to 300 mg/kg.

[2] = system: Fischer rats; experiment: Oral toxicity in Fischer rats, 3 consecutive days; assay type: in vivo; details: Fischer rats (2 animals per sex), orally, 1,000 mg/kg for 3 consecutive days

| Structure (SMILES) | % Inhibition [1] [%] | abnormality after oral administration [2] |
| --- | --- | --- |
| O=C1NC(=O)C(Cc2ccc(OCCCCCCCOc3ccc(CC4SC(=O)NC4=O)cc3)cc2)S1 (stereo not shown) [Example 14, 1,7-bis[4-[(2,4-dioxo-5-thiazolidinyl)methyl]phenoxy]heptane] | 37 |  |
| O=C1NC(=O)C(Cc2ccc(Cc3ccc(CC4SC(=O)NC4=O)cc3)cc2)S1 (stereo not shown) [Example 15, 4,4'-bis[(2,4-dioxo-5-thiazolidinyl)methyl]diphenylmethane] | 47 | no abnormality was observed |
| O=C1NC(=O)C(Cc2ccc(OC/C=C/COc3ccc(CC4SC(=O)NC4=O)cc3)cc2)S1 (stereo not drawn) [Example 16, trans-1,4-bis[p-[(2,4-dioxo-5-thiazolidinyl)methyl]phenoxy]-2-butene] | 51 |  |

Reference: patent EP0533933A1, “BISHETEROCYCLIC COMPOUND” (YAMANOUCHI PHARMACEUTICAL CO. LTD., priority 1990, dated 1992)
